Common to all, as to test: relative viability (nuclei count vs DMSO), 5 days (fraction); higher = more cells survive
Compound in experiment [1]: CC(C)C[C@H](NC(=O)[C@H](CCc1ccccc1)NC(=O)CN1CCOCC1)C(=O)N[C@@H](Cc1ccccc1)C(=O)N[C@@H](CC(C)C)C(=O)[C@@]1(C)CO1 [Carfilzomib] + Cc1cc(Nc2cc(N3CCN(C)CC3)nc(Sc3ccc(NC(=O)C4CC4)cc3)n2)n[nH]1 [Tozasertib] (partner 0.1 µM)
Summed up:
(§1)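 Nuclei were stained with Hoechst during a one-step fixation (final 0.05% Triton X-100, 1% formaldehyde, 1 ug/ml Hoechst) carried out 5 days after dosing, then counted on 4× images. The cells, lung cancer lines in 1536-well plates, had been dosed by pin tool the day after seeding with one drug alone or a fixed anchor-drug dose plus five library-drug doses (not always all listed) in √10 steps. Relative viability is the nuclei count in treated wells divided by that in vehicle wells, and each value is the median of duplicate plates.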

Compound in experiment [2]: C[C@@H](Oc1cc(-c2cnn(C3CCNCC3)c2)cnc1N)c1c(Cl)ccc(F)c1Cl [Crizotinib] + CC(=O)c1c(C)c2cnc(Nc3ccc(N4CCNCC4)cn3)nc2n(C2CCCC2)c1=O [Palbociclib] (partner 0.5 µM)
The essentials: as §1

Compound in experiment [3]: CC(C)C[C@H](NC(=O)[C@H](CCc1ccccc1)NC(=O)CN1CCOCC1)C(=O)N[C@@H](Cc1ccccc1)C(=O)N[C@@H](CC(C)C)C(=O)[C@@]1(C)CO1 [Carfilzomib] + N=C(N)NC(=N)NCCc1ccccc1 [Phenformin] (partner 250 µM)
The essentials:
as §1

Compound in experiment [4]: CC(C)C[C@H](NC(=O)[C@H](CCc1ccccc1)NC(=O)CN1CCOCC1)C(=O)N[C@@H](Cc1ccccc1)C(=O)N[C@@H](CC(C)C)C(=O)[C@@]1(C)CO1 [Carfilzomib] + Nc1nc2[nH]cc(CCc3ccc(C(=O)N[C@@H](CCC(=O)O)C(=O)O)cc3)c2c(=O)[nH]1 [Pemetrexed] (partner 0.2 µM)
The essentials: as §1

For NCI-H2023, the relative viability in experiment [1] (first compound 0.001 µM) turned out to be 0.433; in experiment [1] (first compound 0.003162 µM), 0.399; in experiment [1] (first compound 0.01 µM), 0.352; in experiment [1] (first compound 0.03162 µM), 0.285; in experiment [1] (first compound 0.1 µM), 0.0853; in experiment [2] (first compound 0.01 µM), 0.356. Besides, the relative viability in experiment [2] (first compound 0.03162 µM) was found to be 0.308; in experiment [2] (first compound 0.1 µM), 0.353; in experiment [2] (first compound 0.3162 µM), 0.229; in experiment [2] (first compound 1 µM), 0.236; in experiment [3] (first compound 0.001 µM), 0.406; in experiment [3] (first compound 0.003162 µM) it was 0.444. The relative viability in experiment [3] (first compound 0.01 µM) is 0.416; in experiment [3] (first compound 0.03162 µM), 0.145; in experiment [3] (first compound 0.1 µM), 0.0723; in experiment [4] (first compound 0.001 µM), 0.237; in experiment [4] (first compound 0.003162 µM) it was 0.247; in experiment [4] (first compound 0.01 µM) it was 0.227. Further, the relative viability in experiment [4] (first compound 0.03162 µM) came out at 0.141; in experiment [4] (first compound 0.1 µM) it was 0.0695.

NCI-H2085: the relative viability in experiment [1] (first compound 0.001 µM) worked out at 0.825; in experiment [1] (first compound 0.003162 µM) it was 0.828; in experiment [1] (first compound 0.01 µM) it was 0.786; in experiment [1] (first compound 0.03162 µM), 0.269; in experiment [1] (first compound 0.1 µM), 0.385; in experiment [2] (first compound 0.01 µM), 0.464. The relative viability in experiment [2] (first compound 0.03162 µM) was found to be 0.484; in experiment [2] (first compound 0.1 µM) it was 0.469; in experiment [2] (first compound 0.3162 µM), 0.442; in experiment [2] (first compound 1 µM), 0.44; in experiment [3] (first compound 0.001 µM) it was 0.708; in experiment [3] (first compound 0.003162 µM), 0.862. In addition, the relative viability in experiment [3] (first compound 0.01 µM) turned out to be 0.491; in experiment [3] (first compound 0.03162 µM), 0.259; in experiment [3] (first compound 0.1 µM), 0.244; in experiment [4] (first compound 0.001 µM) it was 0.784; in experiment [4] (first compound 0.003162 µM), 0.941; in experiment [4] (first compound 0.01 µM), 0.968. In addition, the relative viability was found to be 0.54 in experiment [4] (first compound 0.03162 µM) and 0.301 in experiment [4] (first compound 0.1 µM).

For NCI-H2087, the relative viability in experiment [1] (first compound 0.001 µM) turned out to be 0.264; in experiment [1] (first compound 0.003162 µM) it was 0.236; in experiment [1] (first compound 0.01 µM), 0.239; in experiment [1] (first compound 0.03162 µM), 0.0397; in experiment [1] (first compound 0.1 µM), 0.0474; in experiment [2] (first compound 0.01 µM), 0.178. Besides, the relative viability in experiment [2] (first compound 0.03162 µM) was found to be 0.244; in experiment [2] (first compound 0.1 µM), 0.213; in experiment [2] (first compound 0.3162 µM), 0.229; in experiment [2] (first compound 1 µM), 0.23; in experiment [3] (first compound 0.001 µM) it was 0.471; in experiment [3] (first compound 0.003162 µM), 0.445. Besides, the relative viability in experiment [3] (first compound 0.01 µM) is 0.13; in experiment [3] (first compound 0.03162 µM) it was 0.0358; in experiment [3] (first compound 0.1 µM) it was 0.0687; in experiment [4] (first compound 0.001 µM), 0.624; in experiment [4] (first compound 0.003162 µM), 0.656; in experiment [4] (first compound 0.01 µM), 0.57. In addition, the figures for the relative viability in experiment [4] (first compound 0.03162 µM) and in experiment [4] (first compound 0.1 µM) were 0.0837 and 0.0365, respectively.

For the cell line NCI-H2126, the relative viability in experiment [1] (first compound 0.001 µM) is 0.904; in experiment [1] (first compound 0.003162 µM), 0.926; in experiment [1] (first compound 0.01 µM), 0.936; in experiment [1] (first compound 0.03162 µM) it was 0.777; in experiment [1] (first compound 0.1 µM), 0.408; in experiment [2] (first compound 0.01 µM), 0.313. Besides, the relative viability was determined as 0.385 in experiment [2] (first compound 0.03162 µM); 0.37 in experiment [2] (first compound 0.1 µM); 0.342 in experiment [2] (first compound 0.3162 µM); 0.351 in experiment [2] (first compound 1 µM); 0.521 in experiment [3] (first compound 0.001 µM); 0.621 in experiment [3] (first compound 0.003162 µM). In addition, the relative viability amounted to 0.532 in experiment [3] (first compound 0.01 µM); 0.441 in experiment [3] (first compound 0.03162 µM); 0.276 in experiment [3] (first compound 0.1 µM); 0.612 in experiment [4] (first compound 0.001 µM); 0.702 in experiment [4] (first compound 0.003162 µM); 0.678 in experiment [4] (first compound 0.01 µM). The values for the relative viability in experiment [4] (first compound 0.03162 µM) and in experiment [4] (first compound 0.1 µM) were 0.617 and 0.424, respectively.

The values are drawn from the supplement of paper PMC10307832.
